Measurements taken from PubChem BioAssay (NCI).
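48-hour exposure; five concentrations; linearly interpolated endpoints. At the GI50, growth is halved. TGI: total growth inhibition.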

Tests used:
Experiment in all cases: NCI anticancer screen, dose series, 48 h
[1] = test system: HCC-2998 colon
[2] = test system: KM12 colon
[3] = test system: LOX IMVI melanoma
[4] = test system: MDA-MB-435
[5] = test system: OVCAR-5 ovarian
[6] = test system: SK-MEL-5 melanoma
[7] = test system: SNB-19 CNS
[8] = test system: SNB-75 CNS
[9] = test system: UACC-62 melanoma
[10] = test system: HL-60(TB) leukemia
[11] = test system: SF-539 CNS

SMILES	TGI [1]	TGI [2]	TGI [3]	TGI [4]	TGI [5]	TGI [6]	TGI [7]	TGI [8]	TGI [9]	TGI [10]	TGI [11]	GI50 [1]	GI50 [10]	GI50 [2]	GI50 [4]	GI50 [5]	GI50 [6]	GI50 [8]	GI50 [9]
COc1cc(C2S/C(=C/c3ccccc3)C(=O)N2c2ccccc2Cl)cc(OC)c1OC (stereo unspecified)	> 100 µM	> 100 µM	44.9 µM	56.7 µM	> 100 µM	75.1 µM	> 100 µM	29.6 µM	> 100 µM										
O=C(O)CN=c1c2ccccc2n(O)c2ccccc12	> 100 µM	> 100 µM	> 100 µM		> 100 µM	> 100 µM	> 100 µM	> 100 µM	> 100 µM	43 µM									
NC(=S)N/N=C/c1ccc(OC(=O)COc2ccccc2Cl)cn1	> 87.4 µM	> 100 µM	> 100 µM		97.9 µM	> 100 µM	> 100 µM	> 100 µM	42.7 µM	64.9 µM	52.2 µM								
COc1cc(Cc2ccc3c(c2C#N)N(C)c2ccccc2S3)cc(OC)c1OC		> 100 µM	> 100 µM		> 100 µM		> 100 µM			> 100 µM	42.7 µM								
C/C(=N\NC(=S)Nc1ccc(Cl)cc1)c1nc2ncccc2[nH]1	21.1 µM	16.4 µM	13.1 µM	15.1 µM	21.3 µM	6.5 µM	> 100 µM	25.4 µM	12.8 µM	> 100 µM	8.27 µM								
C/C([O-])=C(/c1nc(-c2ccc([N+](=O)[O-])o2)no1)[n+]1cc(C)ccc1C	25.8 µM	25.4 µM	21.8 µM		37.5 µM	23.4 µM	41.5 µM	> 49.9 µM	21.3 µM	31.6 µM	27.6 µM								
BrC1=CN2C[n+]3cc(Br)c4ccccc4c3N=C2c2ccccc21		15.9 µM	34.2 µM	19.2 µM	48.7 µM	12.8 µM	32.4 µM	10.9 µM	20.9 µM	58.5 µM	25.7 µM								
Cc1nc(N(CCO)CCO)c2sc(=S)n(-c3ccccc3)c2n1	> 100 µM	> 100 µM			> 100 µM	> 100 µM	> 100 µM	> 100 µM	> 100 µM	> 100 µM	> 100 µM								
Cc1ncc(CO)c(C=NCCCCCCN=Cc2c(CO)cnc(C)c2O)c1O	> 100 µM	> 100 µM	> 100 µM	> 100 µM	> 100 µM	> 100 µM	> 100 µM	> 100 µM	> 100 µM	> 100 µM	> 100 µM								
COC(=O)C1=C(O)C(C(=O)OC)[C@@]2(O)[C@@H](C(=O)OC)CC[C@@H]1[C@@H]2C(=O)OC (stereo partly specified)	32.2 µM	66 µM	76.8 µM	> 100 µM	70.2 µM		> 100 µM	64.8 µM	> 100 µM	76.6 µM	46.1 µM								
COc1cc2nc(N3CCC[C@@H](NC4=CC(=O)c5ccccc5C4=O)C3)nc(N)c2cc1OC	3.3 µM	3.33 µM		4.14 µM	4.85 µM	3.44 µM		3.25 µM	4.25 µM	4.05 µM		1.85 µM	1.96 µM	1.81 µM	2 µM	2.26 µM	1.77 µM	1.64 µM	2.01 µM
